The text below walks through data of patent publication US4512986A, “Progrestationally active steroids” (priority 1983, dated 1985).

In this assay the target is T1, Cytosol Progesterone Receptor of the Estrogen-primed Immature Rabbit Uterus (Oryctolagus cuniculus, UniProt P06186).
T1 construct: cytosol progesterone receptor of the estrogen-primed immature rabbit uterus; tissue Dutchland Laboratories, Inc., Denver, Pa (animals); host or cells: uterus cytosol of estradiol-treated immature female New Zealand White rabbits
T1 sequence (P06186 1-930): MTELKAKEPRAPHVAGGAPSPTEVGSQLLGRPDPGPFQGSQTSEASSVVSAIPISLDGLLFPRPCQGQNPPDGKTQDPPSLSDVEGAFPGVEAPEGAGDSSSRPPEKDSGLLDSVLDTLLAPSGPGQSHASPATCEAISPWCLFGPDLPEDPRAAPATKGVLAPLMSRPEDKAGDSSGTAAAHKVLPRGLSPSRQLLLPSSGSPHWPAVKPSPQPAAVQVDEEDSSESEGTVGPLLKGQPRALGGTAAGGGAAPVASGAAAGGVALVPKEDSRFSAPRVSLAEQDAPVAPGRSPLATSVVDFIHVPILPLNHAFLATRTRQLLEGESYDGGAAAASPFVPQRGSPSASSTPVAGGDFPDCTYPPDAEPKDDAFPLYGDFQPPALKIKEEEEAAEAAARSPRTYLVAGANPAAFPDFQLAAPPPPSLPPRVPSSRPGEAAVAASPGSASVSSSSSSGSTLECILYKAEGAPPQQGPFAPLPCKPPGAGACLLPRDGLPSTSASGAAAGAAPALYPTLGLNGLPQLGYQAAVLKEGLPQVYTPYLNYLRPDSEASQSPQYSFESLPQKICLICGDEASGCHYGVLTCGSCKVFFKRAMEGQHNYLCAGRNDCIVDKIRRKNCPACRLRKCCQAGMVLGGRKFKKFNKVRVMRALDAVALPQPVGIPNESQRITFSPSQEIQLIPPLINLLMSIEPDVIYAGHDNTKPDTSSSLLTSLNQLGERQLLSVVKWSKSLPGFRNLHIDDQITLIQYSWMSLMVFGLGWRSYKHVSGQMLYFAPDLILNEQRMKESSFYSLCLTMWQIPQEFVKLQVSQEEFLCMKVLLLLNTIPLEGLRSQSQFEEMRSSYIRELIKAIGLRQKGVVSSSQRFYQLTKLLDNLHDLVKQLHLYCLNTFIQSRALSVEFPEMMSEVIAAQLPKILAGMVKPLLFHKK
In words: Relative binding affinity for progesterone receptor (competition with 3H-progesterone). Details: species or system rabbit (New Zealand White).

For the compound `C#C[C@]1(C(C)=O)CC[C@H]2[C@@H]3CCC4=CC(=O)CC[C@]4(C)[C@H]3CC[C@@]21C` [17α-Ethynylprogesterone, 17α-ethynylprogesterone], the “RBA, mean of assays (X±S.D.)” value (16 to 18 hour incubation at 0° C., spurious value 11 excluded) amounted to 189±55. The RBA is, setting by setting: (Assay 1, 16-18 hour incubation, progesterone = 100, 5α-dihydro-17α-ethynyl: lot 1) 156%; (Assay 2, 16-18 hour incubation, progesterone = 100, 5α-dihydro-17α-ethynyl: lot 1) 267%; (Assay 3, 16-18 hour incubation, progesterone = 100, 5α-dihydro-17α-ethynyl: lot 1) 144%; (two-hour incubation at 0° C.) 352.
